Measurements taken from PubChem BioAssay AID179 (DTP/NCI, 2004).
Activity calls are given as the source filed them.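 How the source made its calls: active means compounds giving half or more protection of infected cells from virus-caused growth loss, again on retest; inactive means the rest.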

System: CEM cells HIV-1 protection, formazan growth assay
Experiment: NCI AIDS Antiviral Assay
Conditions: for IC50: measured here: growth of uninfected CEM cells
Method in brief: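 Steps: treat uninfected and HIV-1-infected human CEM cells at five drug levels; quantify growth by soluble formazan; retest any compound reaching 50% protection; classify actives from the retest.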

Cc1cc(NS(=O)(=O)c2ccc(Nc3c4ccccc4nc4c(C(=O)Nc5ccc(S(=O)(=O)O)cc5)cccc34)cc2)no1
EC50: 123 µM
IC50: > 200 µM

N#C/C(=C\NC(=S)Nc1cc(Cl)ccc1Cl)c1nc2ccccc2s1
EC50: > 100 µM
IC50: > 100 µM

Cc1cc(C)nc(NS(=O)(=O)c2ccc(NC(=O)c3cccnc3Nc3cccc(Cl)c3)cc2)n1
outcome: inactive

CC1=C(\C=C/C(C)=C/C=C/C(C)=C/C=N/N=C/C=C(C)\C=C\C=C(C)/C=C/C2=C(C)CCCC2(C)C)C(C)(C)CCC1
EC50: > 200 µM
IC50: 45.7 µM

CCOC(=O)c1ccc(CS(=O)(=O)c2ccc(OC)cc2)cc1
EC50: > 56.2 µM
IC50: > 56.2 µM

COC(=O)CC1C(C(C)(OC)OC)C(=O)N1[Si](C)(C)C(C)(C)C (stereo unspecified)
EC50: > 363 µM
IC50: > 363 µM

Cc1cc(Cl)ccc1Nc1nc2c(s1)C(=O)c1ccccc1C2=O
outcome: inactive

O=C(O)c1nc2sc(C(=O)O)nc2s1
outcome: inactive

CC1N=C(SCc2ccc(Cl)cc2)N2C(C)N=C(SCc3ccc(Cl)cc3)N12 (stereo unspecified)
EC50: > 21.9 µM
IC50: > 21.9 µM

CC(=O)Oc1ccc(-c2oc3c([C@H]4C=C(C)CC(c5ccc(OC(C)=O)cc5OC(C)=O)[C@@H]4C(=O)c4ccc(OC(C)=O)c(CC=C(C)C)c4OC(C)=O)c(OC(C)=O)cc(O)c3c(=O)c2CC=C(C)C)c(OC(C)=O)c1 (stereo partly specified)
EC50: > 11.7 µM
IC50: 7.41 µM

COC(=O)CCC(=O)N1CC1C (stereo unspecified)
outcome: inactive

COc1ccc(C=NC23CC4CC(CC(C4)C2)C3)cc1
EC50: > 95.5 µM
IC50: > 95.5 µM

Cc1c(O)nc(CO)[nH]c1=O
EC50: > 200 µM
IC50: > 200 µM

O=C1CC(=O)n2cnc3cccc(c32)N1
EC50: 17.4 µM
IC50: > 200 µM

CCC1=C(C[C@H]2NCCc3cc(OC)c(OC)cc32)C[C@H]2c3cc(OC)c(OC)cc3CCN2C1
outcome: inactive

NC(=N\N=C/c1ccc(Cl)cc1Cl)/C(N)=N\N=C/c1ccc(Cl)cc1Cl
outcome: inactive

CC(C)(C)C1(C#N)C(=O)N(c2ccc(N3C(=O)C(C#N)(C(C)(C)C)C34c3ccccc3-c3ccccc34)cc2)C12c1ccccc1-c1ccccc12 (stereo unspecified)
EC50: > 372 µM
IC50: 107 µM

O=C(c1ccccc1Cl)c1c(O)c2ccccc2oc1=O
EC50: > 200 µM
IC50: > 200 µM

O=[N+]([O-])C(C(Cl)=C(Cl)Cl)=C(N(Cc1ccccc1)Cc1ccccc1)N(Cc1ccccc1)Cc1ccccc1
EC50: > 0.2 µM
IC50: > 0.2 µM

O=C(CCc1ccc(O)c(O)c1)NCCc1cc(O)c(O)c(O)c1
EC50: > 200 µM
IC50: 5.01 µM

Cc1ccc(Nc2nc3nc[nH]c3c(=O)[nH]2)cc1CO
EC50: > 200 µM
IC50: > 200 µM

CC1C(c2ccccc2)NC(c2ccccc2)CC1(N)C#N (stereo unspecified)
EC50: > 123 µM
IC50: > 123 µM

O=C(CC1C(=O)Nc2ccccc2S1(=O)=O)Nc1ccc(Cl)cc1 (stereo unspecified)
EC50: > 5.5 µM
IC50: > 5.5 µM

CCCCCCCCCCCC(=O)OC[C@@H](C[As](=O)(O)O)OC(=O)CCCCCCCCCCC
EC50: > 200 µM
IC50: 3.89 µM

NC(=O)COc1c(Br)cc(Br)cc1Br
EC50: > 34.7 µM
IC50: > 34.7 µM

CC(CCC(=O)O)CCC(=O)O
EC50: > 1450 µM
IC50: > 1450 µM

Cn1c2ccccc2c2cc(N3CCCC3)c3c(c21)C(=O)N(c1ccccc1)C3=O
EC50: > 200 µM
IC50: > 200 µM

CCCCC1(OC(=O)CCC(=O)O)CCC2(CCC(C)C(C/C=C(C)/C=C/C(O)C(C)/C=C/C(=O)O)O2)OC1CC/C(C)=C/C(=O)O (stereo unspecified)
EC50: > 3.8 µM
IC50: 1.29 µM

COC12CCCN1c1ccn(Cc3ccccc3)c(=O)c1C2=O (stereo unspecified)
outcome: inactive

O=C(CC1Sc2ccccc2NC1=O)Nc1ccccc1[N+](=O)[O-] (stereo unspecified)
EC50: > 724 µM
IC50: 70.8 µM

CC(=O)Nc1ccc(-c2nnc(SCC(=O)Nc3ccccc3[N+](=O)[O-])o2)cc1
EC50: > 24 µM
IC50: > 24 µM

CCOC(=O)/C(C#N)=C/c1cccc(Br)c1
outcome: inactive

Cc1cc([C@H](C#N)c2nc3ccccc3s2)nc(Cl)n1
EC50: > 15.1 µM
IC50: 1.05 µM

OCC1OC(OC[C@H](COCc2ccccc2)OCc2ccccc2)C(O)C(O)C1O (stereo partly specified)
EC50: > 35.5 µM
IC50: > 35.5 µM

CC1(C)OC(=O)C2C3C=CC(C2C(=O)O)C31 (stereo unspecified)
EC50: > 1120 µM
IC50: > 1120 µM

c1ccc(C[N+]23CCC(CC2)C3c2ccccc2)cc1 (stereo unspecified)
EC50: > 832 µM
IC50: 148 µM

O=C1N=C2C=CC=CN2CC1O (stereo unspecified)
EC50: > 200 µM
IC50: > 200 µM

Cc1cnc2c(ccc3c(C)c(C)cnc32)c1C.Cc1cnc2c(ccc3c(C)c(C)cnc32)c1C.O=C1OC(C(O)C[O-])C(O)=C1O.[Cu+]
EC50: > 25.1 µM
IC50: 0.912 µM

Cc1c(C(c2[nH]c3ccccc3c2C)c2[nH]c3ccccc3c2C)[nH]c2ccccc12
EC50: 0.0631 µM
IC50: 13.5 µM

CCCCCCCCCCCCNC(=O)C(O)C(O)C(O)C(COS(=O)(=O)O)OS(=O)(=O)O (stereo unspecified)
EC50: > 200 µM
IC50: 30.2 µM

C1=C2/CC[C@H](Sc3ccccc3)C2C2(CCCCC/1)OCCO2 (stereo partly specified)
EC50: > 200 µM
IC50: 38.9 µM

O=C(N/C(=C\c1cc(Cl)ccc1Cl)c1nc2ccc(Cl)cc2[nH]1)c1ccccc1
outcome: inactive

N[C@@H](CSSc1ccccc1C(=O)O)C(=O)O
EC50: > 200 µM
IC50: > 200 µM

Cc1ccc(NC(=O)c2[nH]c(=S)nc(N)c2-c2ccccc2C)cc1C
EC50: > 692 µM
IC50: > 692 µM

CCOC(=O)C1Oc2ccc([N+](=O)[O-])cc2C1(C)O (stereo unspecified)
outcome: inactive

NC(=O)N/N=C(\CC1OC(=O)c2ccccc21)c1ccc([N+](=O)[O-])cc1 (stereo unspecified)
outcome: inactive

CCCC(=O)[O-].CCCC(=O)[O-].N.N.N.N.[Co+3].[O-][Cl+3]([O-])([O-])[O-]
outcome: inactive

S=C(Nc1c2c(nc3ccccc13)CCCC2)Nc1c2c(nc3ccccc13)CCCC2
EC50: > 200 µM
IC50: > 200 µM

C[N+](C)(CCCCCC[N+](C)(C)C1c2ccccc2-c2ccccc21)C1c2ccccc2-c2ccccc21
EC50: > 200 µM
IC50: 182 µM

N#Cc1cn(C2OC(CO)C(O)C2O)c2ncnc(N)c12 (stereo unspecified)
EC50: > 0.2 µM
IC50: 0.00151 µM

Cn1c(=O)[nH]c(N2CCOCC2)c(C#N)c1=S
EC50: > 200 µM
IC50: > 200 µM

Cc1nc2ccccc2c(=O)n1-c1ccccc1F
EC50: > 708 µM
IC50: 437 µM

Nn1c(NNC(=O)C(=O)Nc2cc(Cl)c(Cl)cc2Cl)n[nH]c1=S
EC50: > 123 µM
IC50: > 123 µM

COC(=O)c1cc(C(=CCCCCO)c2cc(Cl)c(OC)c(C(=O)OC)c2)cc(Cl)c1OC
EC50: > 200 µM
IC50: 23.4 µM

CC(=O)Oc1c(C)cc2c(c1C)C(C)(C)CN2C(=O)C(C)(C)C
EC50: > 200 µM
IC50: 66.1 µM

COc1ccc(-n2cnc3c(NC(CCSC)C(=O)O)ncnc32)cc1 (stereo unspecified)
EC50: 75.9 µM
IC50: > 200 µM

Clc1ccc(CCN2CCOCC2)c(Cl)c1
EC50: > 63.1 µM
IC50: > 63.1 µM

O=c1onc2c3ccccc3ncn12
EC50: > 200 µM
IC50: > 200 µM

CCCCCCCCCCCCCCCCOC(=O)C(C(=O)OCCCCCCCCCCCCCCCC)[N+](C)(C)CCOC(C)=O
outcome: inactive

COc1cc(/C=C2/C(=O)N(C(=O)c3ccc(Cl)cc3)N=C2C)cc(OC)c1OC
EC50: > 17.4 µM
IC50: > 17.4 µM

O=C(Cc1ccccc1CCO)NCCc1ccccc1
EC50: > 200 µM
IC50: > 200 µM

O=C(c1ccc(Cl)cc1)c1ccc(N=[N+]([O-])c2ccc(C(=O)c3ccc(Cl)cc3)cc2)cc1
EC50: > 100 µM
IC50: > 100 µM
